Data published in ChEMBL document CHEMBL1145216, “N-hydroxy-2-(naphthalene-2-ylsulfanyl)-acetamide, a novel hydroxamic acid-based inhibitor of aminopeptidase N and its anti-angiogenic activity” (Bioorg Med Chem Lett, 2005).
pIC50, pKi: −log10 of the molar value.

How the values were obtained:
[1] = biological target: T1, Matrix metalloproteinase-9 (Homo sapiens, UniProt P14780); assay: Inhibition of human matrix metalloprotease-9 expressed in Sf9 insect cells; NA:Not active
[2] = biological target: T2, Matrix metalloproteinase-14 (Homo sapiens, UniProt P50281); assay: Inhibitory concentration against matrix metalloprotease-14 in Escherichia coli was determined; NA:Not active
Aminopeptidase N [3] = biological target: T3, Aminopeptidase N (Homo sapiens, UniProt P15144); assay: Inhibitory concentration against aminopeptidase N
[4] = biological target: 72 kDa type IV collagenase (Homo sapiens, UniProt P08253); assay: Inhibition of human matrix metalloprotease-2 expressed in Sf9 insect cells; NA:Not active
Aminopeptidase N [5] = biological target: T3, Aminopeptidase N; assay: Binding affinity towards aminopeptidase N
[6] = biological target: T1, Matrix metalloproteinase-9; assay: Inhibition of human matrix metalloprotease-9 expressed in Sf9 insect cells
[7] = biological target: T2, Matrix metalloproteinase-14; assay: Inhibition of human matrix metalloprotease-14 expressed in Escherichia coli

T1 sequence (P14780 whole entry): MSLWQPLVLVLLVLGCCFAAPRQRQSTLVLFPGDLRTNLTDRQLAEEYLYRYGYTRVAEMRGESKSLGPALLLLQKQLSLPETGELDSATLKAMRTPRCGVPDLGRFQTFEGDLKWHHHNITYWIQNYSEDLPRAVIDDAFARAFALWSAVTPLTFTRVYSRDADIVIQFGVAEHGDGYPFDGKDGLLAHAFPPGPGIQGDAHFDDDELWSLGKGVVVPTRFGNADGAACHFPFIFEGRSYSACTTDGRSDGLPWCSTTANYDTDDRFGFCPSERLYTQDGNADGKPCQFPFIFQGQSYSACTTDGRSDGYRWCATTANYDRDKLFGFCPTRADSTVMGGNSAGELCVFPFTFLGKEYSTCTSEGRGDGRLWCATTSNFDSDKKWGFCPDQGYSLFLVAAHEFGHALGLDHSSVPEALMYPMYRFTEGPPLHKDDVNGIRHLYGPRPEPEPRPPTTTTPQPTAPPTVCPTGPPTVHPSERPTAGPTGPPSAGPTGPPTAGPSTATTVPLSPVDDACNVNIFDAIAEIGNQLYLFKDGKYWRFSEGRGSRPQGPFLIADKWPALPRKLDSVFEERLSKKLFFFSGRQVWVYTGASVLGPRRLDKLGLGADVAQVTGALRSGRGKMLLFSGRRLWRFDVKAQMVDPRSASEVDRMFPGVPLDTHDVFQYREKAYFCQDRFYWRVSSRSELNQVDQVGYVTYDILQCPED
T3 sequence (P15144 whole entry): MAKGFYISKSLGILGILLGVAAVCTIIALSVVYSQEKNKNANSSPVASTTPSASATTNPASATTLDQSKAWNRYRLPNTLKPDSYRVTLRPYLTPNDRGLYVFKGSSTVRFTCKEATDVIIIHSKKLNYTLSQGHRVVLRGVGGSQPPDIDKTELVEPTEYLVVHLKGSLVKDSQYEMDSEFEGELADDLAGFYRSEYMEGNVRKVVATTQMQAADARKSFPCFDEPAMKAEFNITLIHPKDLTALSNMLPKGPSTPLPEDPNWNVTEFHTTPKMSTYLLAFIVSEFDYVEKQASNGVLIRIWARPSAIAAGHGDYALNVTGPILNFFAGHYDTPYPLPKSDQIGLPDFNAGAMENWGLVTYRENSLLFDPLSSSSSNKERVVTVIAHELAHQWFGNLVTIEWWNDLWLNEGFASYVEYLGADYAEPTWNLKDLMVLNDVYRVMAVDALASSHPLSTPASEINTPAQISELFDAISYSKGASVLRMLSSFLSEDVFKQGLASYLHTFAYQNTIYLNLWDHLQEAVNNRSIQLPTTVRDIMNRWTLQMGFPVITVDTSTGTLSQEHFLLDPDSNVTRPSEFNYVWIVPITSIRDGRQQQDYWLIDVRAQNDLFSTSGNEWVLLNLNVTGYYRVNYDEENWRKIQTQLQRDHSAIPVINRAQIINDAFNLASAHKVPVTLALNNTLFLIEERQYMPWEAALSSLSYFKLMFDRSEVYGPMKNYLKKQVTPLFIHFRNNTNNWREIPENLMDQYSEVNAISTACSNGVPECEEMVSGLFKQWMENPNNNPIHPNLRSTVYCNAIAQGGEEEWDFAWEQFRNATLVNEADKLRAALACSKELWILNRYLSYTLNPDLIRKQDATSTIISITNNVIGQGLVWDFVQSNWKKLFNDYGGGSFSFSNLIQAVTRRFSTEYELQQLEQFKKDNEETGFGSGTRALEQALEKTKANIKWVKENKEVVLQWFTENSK
72 kDa type IV collagenase, sequence (P08253 whole entry): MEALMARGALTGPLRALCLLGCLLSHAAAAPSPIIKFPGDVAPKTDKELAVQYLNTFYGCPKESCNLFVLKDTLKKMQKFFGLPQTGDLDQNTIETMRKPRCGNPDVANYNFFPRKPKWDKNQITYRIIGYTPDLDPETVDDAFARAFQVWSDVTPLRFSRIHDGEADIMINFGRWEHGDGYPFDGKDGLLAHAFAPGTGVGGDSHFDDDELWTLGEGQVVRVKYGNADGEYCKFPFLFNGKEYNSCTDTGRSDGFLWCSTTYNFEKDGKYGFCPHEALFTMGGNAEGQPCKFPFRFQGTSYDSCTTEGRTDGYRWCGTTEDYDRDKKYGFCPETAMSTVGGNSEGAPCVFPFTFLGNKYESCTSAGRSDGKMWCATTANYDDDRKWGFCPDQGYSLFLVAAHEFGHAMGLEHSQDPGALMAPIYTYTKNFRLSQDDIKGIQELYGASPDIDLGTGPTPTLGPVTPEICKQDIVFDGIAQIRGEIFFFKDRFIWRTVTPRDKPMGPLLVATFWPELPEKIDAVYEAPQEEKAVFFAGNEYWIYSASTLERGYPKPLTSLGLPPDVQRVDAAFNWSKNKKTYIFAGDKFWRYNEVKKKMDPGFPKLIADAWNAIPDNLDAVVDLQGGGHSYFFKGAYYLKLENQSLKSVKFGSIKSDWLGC

| SMILES | IC50 [1] | IC50 [2] | pIC50 (Aminopeptidase N [3]) | IC50 [4] | pKi (Aminopeptidase N [5]) | pIC50 [6] | pIC50 [7] |
| --- | --- | --- | --- | --- | --- | --- | --- |
| O=C(CSc1ccc2ccccc2c1)NO | Not Active | Not Active | 5.47 | Not Active | 5.46 |  |  |
| CNC(=O)[C@H](Cc1ccccc1)NC(=O)[C@H](CC(C)C)[C@H](CSc1cccs1)C(=O)NO [BATIMASTAT] |  |  |  |  |  | 7.60 | 7.33 |
